# According to ChEMBL document CHEMBL2384944, “Metabolically Stable tert-Butyl Replacement” (ACS Med Chem Lett, 2013):
# How the values were obtained:
# [1] = Half life in rat liver microsomes at 1 uM in presence of NADPH
# [2] = Half life in human liver microsomes at 1 uM in presence of NADPH
# CYP3A4/5 = CYP3A4/5 (Homo sapiens, UniProt P08684+P20815); experiment: Reversible inhibition of CYP3A4/5 in human liver microsomes using midazolam as substrate preincubated for 30 mins followed by NADPH and substrate addition measured after 10 mins; type: ADME, Microsome; details: probe midazolam
# [3] = Lipophilicity, log P of the compound; type: physicochemical; details: octanol/water
# [4] = Clearance in Sprague-Dawley rat at <= 1 mg/kg, iv; type: ADME, organism-based; set-up: dose 1 mg/kg, route intravenous; details: in vivo
# [5] = Volume of distribution at steady state in Sprague-Dawley rat at <= 1 mg/kg, iv; type: ADME, organism-based; set-up: dose 1 mg/kg, route intravenous; details: in vivo, read-out: Vdss
# [6] = Half life in Sprague-Dawley rat at <= 1 mg/kg, iv; type: ADME, organism-based; set-up: dose 1 mg/kg, route intravenous; details: in vivo
Structure (SMILES),half-life at 1 µM ([1]; microsomes) [h],half-life at 1 µM ([2]; microsomes) [h],IC50 at 10 min (CYP3A4/5) [µM],half-life at 1 µM ([1]; liver microsomes) [h],half-life at 1 µM ([2]; liver microsomes) [h],other results
O=C(Nc1ccc(C(F)(F)F)cc1)c1ccc(C2(C(F)(F)F)CC2)cc1,0.667,> 6.75,,,,
CC(C)(C)c1ccc(-c2ccc(F)cn2)cc1,0.4,0.45,> 50,,,
Fc1ccc(-c2ccc(C3(C(F)(F)F)CC3)cc2)nc1,,,> 50,> 6.75,1.07,
CC(C)(C)c1ccc(-c2ccnc(C#N)c2)cc1,,,,0.133,0.417,
N#Cc1cc(-c2ccc(C3(C(F)(F)F)CC3)cc2)ccn1,,,,1.25,1.15,
C[C@]12C=CC(=O)N[C@@H]1CC[C@@H]1[C@@H]2CC[C@]2(C)[C@@H](C(=O)NC3(C(F)(F)F)CC3)CC[C@@H]12,,,,,1.9,
CC(C)(C)c1ccc(-c2ccc(C#N)cn2)cc1,0.5,0.85,> 50,,,logP [3]: 4.2; clearance [4]: 20 mL/min/kg; Vd [5]: 2.5 L/kg; half-life [6]: 2.3 h
CC(C)(CO)c1ccc(-c2ccc(C#N)cn2)cc1,2.08,3.37,,,,
CC(C)(C#N)c1ccc(-c2ccc(C#N)cn2)cc1,1.17,2.03,,,,
CC(C)(C(=O)O)c1ccc(-c2ccc(C#N)cn2)cc1,2.25,4.57,,,,
CC1(c2ccc(-c3ccc(C#N)cn3)cc2)COC1,0.617,0.633,> 50,,,clearance [4]: 28 mL/min/kg; Vd [5]: 1.3 L/kg; half-life [6]: 0.4 h
CC(C)c1ccc(-c2ccc(C#N)cn2)cc1,0.117,0.15,> 50,,,
CC(c1ccc(-c2ccc(C#N)cn2)cc1)C(F)(F)F (centres undefined),0.417,1.1,,,,
N#Cc1ccc(-c2ccc(C3(C(F)(F)F)CC3)cc2)nc1,,,> 50,> 6.67,2.5,logP [3]: 4; clearance [4]: 4.6 mL/min/kg; Vd [5]: 3.4 L/kg; half-life [6]: 9.1 h
N#Cc1ccc(-c2ccc(C3(C(F)(F)F)CC3)nc2)nc1,,,,2.15,1.83,
CC(C)(C)c1ccc(C(=O)Nc2ccc(C(F)(F)F)nc2)cc1,,,> 50,0.417,0.683,clearance [4]: 352 mL/min/kg; Vd [5]: 5.4 L/kg; half-life [6]: 0.2 h
O=C(Nc1ccc(C(F)(F)F)nc1)c1ccc(C2(C(F)(F)F)CC2)cc1,,,> 50,3.28,> 6.75,clearance [4]: 25 mL/min/kg; Vd [5]: 6.2 L/kg; half-life [6]: 3.4 h
CC(C)(C)c1ccc(C(=O)Nc2ccc(C#N)nc2)cc1,,,,0.4,0.85,
N#Cc1ccc(NC(=O)c2ccc(C3(C(F)(F)F)CC3)cc2)cn1,,,,1.63,1.47,
CC(C)(C)c1ccc(C(=O)Nc2ccc(C#N)cc2)cc1,,,,0.2,1.42,
N#Cc1ccc(NC(=O)c2ccc(C3(C(F)(F)F)CC3)cc2)cc1,0.783,> 6.75,,,,
CC(C)(C)c1ccc(C(=O)Nc2ccc(C(F)(F)F)cc2)cc1,,,,0.2,0.483,
CC(C)(C)NC(=O)[C@H]1CC[C@H]2[C@@H]3CC[C@H]4NC(=O)C=C[C@]4(C)[C@H]3CC[C@]12C [FINASTERIDE],,1.05,,,,
